Assay results from patent US20210269434A1, “TRICYCLIC COMPOUNDS AS INHIBITORS OF KRAS” (Incyte Corporation, priority 2020, published 2021).

Experiments:
[1] = molecular target: KRAS G12C (Homo sapiens, UniProt P01116, G12C); test: GDP-GTP exchange assay (KRAS_G12C exchange); type: biochemical; conditions: bodipy-GDP loaded KRAS G12C 2.5 nM, SOS1 150 nM, GppNHp; 2 hours pre-incubation, 2 hours reaction; read-out: G12C_exchange
Outline: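 Fluorescence exchange of bodipy-GDP for GppNHp, SOS1-driven, read at 485/520 nm; IC50 from four-parameter variable-slope fit. Both mutants used 2.5 nM final labelled protein and a 2 h compound pre-incubation. G12C reaction had 500 uM GppNHp and 150 nM SOS1 for 2 h; G12D ran 4 h.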

[2] = test system: MIA PaCa-2 (KRAS G12C) cells; test: Cellular pERK HTRF assay (KRAS_G12C pERK); type: cell-based, human; conditions: Homo sapiens, MIA PaCa-2, 4 hours incubation, read-out: G12C_pERK
Outline: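 MIA PaCa-2 cells plated overnight, then exposed to compound for 4 h at 37 °C (G12C compounds). Phospho-ERK1/2 measured in lysates by HTRF (665/620 nm) after overnight antibody incubation; IC50 from percent inhibition versus log concentration.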

Chain of KRAS G12C (P01116 1-188 isoform P01116-2 G12C): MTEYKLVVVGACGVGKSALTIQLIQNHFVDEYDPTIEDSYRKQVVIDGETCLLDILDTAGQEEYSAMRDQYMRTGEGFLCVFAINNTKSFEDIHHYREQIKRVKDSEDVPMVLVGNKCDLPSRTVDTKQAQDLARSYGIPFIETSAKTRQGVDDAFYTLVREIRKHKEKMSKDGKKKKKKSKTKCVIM

IC50 [1]	IC50 [2]	Compound
≤ 100 nM	≤ 100 nM	CC#CC(=O)N1CC[C@H](n2nnc3c(OC[C@@H]4CCCN4C)nc4c(F)c(-c5cccc(Cl)c5C)c(CCC#N)cc4c32)C[C@H]1CC#N [Example 241a, 3-(1-((2S,4S)-1-(but-2-ynoyl)-2-(cyanomethyl)-piperidin-4-yl)-7-(3-chloro-2-methylphenyl)-6-fluoro-4-(((S)-1-methylpyrrolidin-2-yl)methoxy)-1H-[1,2,3]triazolo[4,5-c]quinolin-8-yl)propanenitrile]
≤ 100 nM	100 to 1000 nM	C=CC(=O)N1CCC(n2cnc3c(N4CC(N(C)C)C4)nc4c(F)c(-c5cc(O)cc6ccccc56)c(Cl)cc4c32)CC1 [Example 9, 1-(4-(8-chloro-4-(3-(dimethylamino)azetidin-1-yl)-6-fluoro-7-(3-hydroxy-naphthalen-1-yl)-1H-imidazo[4,5-c]quinolin-1-yl)piperidin-1-yl)prop-2-en-1-one]
≤ 100 nM	≤ 100 nM	C=CC(=O)N1CC[C@H](n2cnc3c(N4CC(N(C)C)C4)nc4c(F)c(-c5cc(O)ccc5Cl)c(Cl)cc4c32)C[C@H]1CC#N (single isomer, unassigned) [Example 54a]
≤ 100 nM	100 to 1000 nM	C=CC(=O)N1CC(n2cnc3c(OC[C@@H]4CCCN4C)nc4c(F)c(-c5cc(O)cc6ccccc56)c(Cl)cc4c32)C1 (single isomer, unassigned) [Example 6a]
≤ 100 nM	≤ 100 nM	C=CC(=O)N1CCC(n2nnc3c(N4CC(C)(N(C)C)C4)nc4c(F)c(-c5cccc(C)c5)c(Cl)cc4c32)C[C@H]1CC#N (stereo partly drawn) [Example 211, 2-((2S)-1-acryloyl-4-(8-chloro-4-(3-(dimethylamino)-3-methylazetidin-1-yl)-6-fluoro-7-(m-tolyl)-1H-[1,2,3]triazolo[4,5-c]quinolin-1-yl)piperidin-2-yl)acetonitrile]
≤ 100 nM	≤ 100 nM	C=CC(=O)N1CCC(n2cnc3c(OC[C@@H]4CCCN4C)nc4c(F)c(-c5cc(O)ccc5C)c(Cl)cc4c32)CC1CC#N (single isomer, unassigned) [Example 39a]
≤ 100 nM	≤ 100 nM	C=CC(=O)N1CC[C@H](n2cnc3c(N4CC(C)(N(C)C)C4)nc4c(F)c(-c5ccc(F)cc5)c(C)cc4c32)C[C@H]1CC#N [Example 121, 2-((2S,4S)-1-acryloyl-4-(4-(3-(dimethylamino)-3-methylazetidin-1-yl)-6-fluoro-7-(4-fluorophenyl)-8-methyl-1H-imidazo[4,5-c]quinolin-1-yl)piperidin-2-yl)acetonitrile]
≤ 100 nM	≤ 100 nM	CC#CC(=O)N1CC[C@H](n2nnc3c(N4CC(C)(N(C)C)C4)nc4c(F)c(-c5ccc(F)c6cccnc56)c(C(F)(F)F)cc4c32)C[C@H]1CC#N [Example 234, 2-((2S,4S)-1-(but-2-ynoyl)-4-(4-(3-(dimethylamino)-3-methylazetidin-1-yl)-6-fluoro-7-(5-fluoroquinolin-8-yl)-8-(trifluoromethyl)-1H-[1,2,3]triazolo[4,5-c]quinolin-1-yl)piperidin-2-yl)acetonitrile]
≤ 100 nM	≤ 100 nM	CC#CC(=O)N1CC[C@H](n2nnc3c(N4CCOCC4=O)nc4c(F)c(-c5cccc(C)c5Cl)c(C)cc4c32)C[C@H]1CC#N [Example 260, 2-((2S,4S)-1-(but-2-ynoyl)-4-(7-(2-chloro-3-methylphenyl)-6-fluoro-8-methyl-4-(3-oxomorpholino)-1H-[1,2,3]triazolo[4,5-c]quinolin-1-yl)piperidin-2-yl)acetonitrile]
≤ 100 nM	≤ 100 nM	Cc1cc2c(nc(OC[C@@H]3CCCN3C)c3nnn([C@H]4CCN(C(=O)/C=C/CF)[C@H](CC#N)C4)c32)c(F)c1-c1ccc(F)cc1 [Example 136, 2-((2S,4S)-4-(6-fluoro-7-(4-fluorophenyl)-8-methyl-4-(((S)-1-methylpyrrolidin-2-yl)methoxy)-1H-[1,2,3]triazolo[4,5-c]quinolin-1-yl)-1-((E)-4-fluorobut-2-enoyl)piperidin-2-yl)acetonitrile]
